How the values were obtained:
[1] = biological target: T1, Human Glucocorticoid Receptor (Homo sapiens, UniProt P04150); experiment: functional in vitro glucocorticoid assay, sPAP reporter under MMTV LTR in transfected Hela cells; format: cell-based; settings: sPAP transcription in transfected Hela cells, 72 hours incubation
T1 construct: endogenous in cells; host or cells: HeLa cells (stably transfected with the sPAP reporter under the MMTV LTR)
T1 sequence (P04150 1-777): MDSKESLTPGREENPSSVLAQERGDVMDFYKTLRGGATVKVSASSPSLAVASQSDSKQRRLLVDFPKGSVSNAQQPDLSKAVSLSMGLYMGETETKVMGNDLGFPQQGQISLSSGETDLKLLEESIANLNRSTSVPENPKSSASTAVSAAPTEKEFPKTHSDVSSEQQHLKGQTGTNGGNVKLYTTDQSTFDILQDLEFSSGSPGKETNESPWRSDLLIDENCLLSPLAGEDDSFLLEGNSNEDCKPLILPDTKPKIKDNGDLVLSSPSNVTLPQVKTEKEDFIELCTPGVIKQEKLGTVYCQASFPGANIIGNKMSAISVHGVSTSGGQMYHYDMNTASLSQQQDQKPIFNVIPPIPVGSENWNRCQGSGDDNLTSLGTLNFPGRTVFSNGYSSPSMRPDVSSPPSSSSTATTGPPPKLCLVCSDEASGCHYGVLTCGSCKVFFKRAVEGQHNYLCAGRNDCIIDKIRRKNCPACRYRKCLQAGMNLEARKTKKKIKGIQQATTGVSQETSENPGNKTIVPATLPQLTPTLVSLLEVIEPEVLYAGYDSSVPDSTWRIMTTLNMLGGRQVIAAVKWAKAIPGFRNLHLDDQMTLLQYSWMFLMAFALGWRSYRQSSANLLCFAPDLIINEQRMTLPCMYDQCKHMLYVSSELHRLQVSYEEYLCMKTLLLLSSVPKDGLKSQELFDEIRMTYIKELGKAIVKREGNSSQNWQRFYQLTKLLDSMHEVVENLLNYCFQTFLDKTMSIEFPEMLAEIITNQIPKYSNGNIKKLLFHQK
From the text: The functional assay used was a modification of the method described by T. S Berger et al, of J. of Steroid Biochem. Molec. Biol. 1992, 41 (3-8), 733-738, "Interaction of Glucocorticoid analogues with the Human Glucocorticoid Receptor".
Thus, Hela cells were stably transfected with a detectable reporter gene (secreted placental alkaline phosphatase, sPAP) under the control of a glucocorticoid response promoter (the LTR of the mouse mammary tumour virus, MMTV).
Various concentrations of standard (dexamethasone) or compounds of the invention were incubated with transfected Hela cells for 72 hours. At the end of the incubation, substrate ([…]) for sPAP was added and the product measured by a spectrophotometric method. Increased absorbance reflected increased sPAP transcription and concentration-response lines were constructed such that EC50 -values could be estimated.

[2] = test system: rat ear oedema; experiment: Anti-inflammatory activity: inhibition of rat ear oedema (croton oil); format: in vivo; settings: topical to ear with 5% croton oil in acetone, male rats, 6 hours
Experimental: (i) Anti-inflammatory Activity--Inhibition of rat ear oedema
The test compounds are dissolved in acetone and 40 ul containing 5% croton oil is applied to the inner surface of each of the ears of 60-80 g male rats. Animals are killed 6 hours later and the ears are removed. Standard size (0.5 cm diameter) discs are punched out and the discs weighed. Mean weight of the ear discs is calculated and from this percentage inhibition of ear inflammation in relation to croton oil alone treated ears are calculated.

[3] = Hydrolysis in Blood (stability in human plasma); format: in vitro ADME

SMILES	EC50 [1]	further results
CCC(=O)O[C@]1(C(=O)SC2CCOC2=O)[C@@H](C)C[C@H]2[C@@H]3CCC4=CC(=O)C=C[C@]4(C)[C@@]3(F)[C@@H](O)C[C@@]21C (single isomer, unassigned) [Example 7, 9α-Fluoro-11β-hydroxy-16β-methyl-3-oxo-17α-propionyloxy-androsta-1,4-diene-17β-carbothioic acid S-(2-oxo-tetrahydro-furan-3-yl) ester]	< 400 nM	–
CC1(C)O[C@@H]2C[C@H]3[C@@H]4C[C@H](F)C5=CC(=O)C=C[C@]5(C)[C@@]4(F)[C@@H](O)C[C@]3(C)[C@]2(C(=O)SC2CCOC2=O)O1 (single isomer, unassigned) [Example 12, 6α,9α-Difluoro-11β-hydroxy-16α,17α-isopropylidenedioxy-3-oxoandrosta-1,4-diene-17β-carbothioic acid S-(2-oxo-tetrahydro-furan-3-yl) ester]	< 400 nM	–
CC1(C)O[C@@H]2C[C@H]3[C@@H]4C[C@H](F)C5=CC(=O)C=C[C@]5(C)[C@@]4(F)[C@@H](O)C[C@]3(C)[C@]2(C(=O)N[C@@H]2CCOC2=O)O1 (single isomer, unassigned) [Example 16 Isomer B, 6α,9α-Difluoro-11β-hydroxy-16α,17α-isopropylidenedioxy-3-oxo-androsta-1,4-diene-17β-carboxylic acid N-(2-oxo-tetrahydro-furan-3-yl) amide]	–	% Inhibition (ear inflammation) ([2]; dose 10 μg): 42%
CCC[C@@H]1O[C@@H]2C[C@H]3[C@@H]4C[C@H](F)C5=CC(=O)CC[C@]5(C)[C@@]4(F)[C@@H](O)C[C@]3(C)[C@]2(C(=O)SC2CCOC2=O)O1 (single isomer, unassigned) [Example 19 Isomer A, 16α,17α-(R-Butylidenedioxy)-6α,9α-difluoro-11β-hydroxy-3-oxo-androst-4-ene-17β-carbothioic acid S-(2-oxo-tetrahydro-furan-3-yl) ester]	–	% Inhibition (ear inflammation) ([2]; dose 100 μg): 54%
CCC[C@@H]1O[C@@H]2C[C@H]3[C@@H]4C[C@H](F)C5=CC(=O)CC[C@]5(C)[C@@]4(F)[C@@H](O)C[C@]3(C)[C@]2(C(=O)SC2CCOC2=O)O1 (single isomer, unassigned) [Example 19 Isomer B, 16α,17α-(R-Butylidenedioxy)-6α,9α-difluoro-11β-hydroxy-3-oxo-androst-4-ene-17β-carbothioic acid S-(2-oxo-tetrahydro-furan-3-yl) ester]	–	% Inhibition (ear inflammation) ([2]; dose 100 μg): 43%
CCC[C@@H]1O[C@@H]2C[C@H]3[C@@H]4C[C@H](F)C5=CC(=O)CC[C@]5(C)[C@@]4(F)[C@@H](O)C[C@]3(C)[C@]2(C(=O)SC2CCOC2=O)O1 (single isomer, unassigned) [Example 19, 16α,17α-(R-Butylidenedioxy)-6α,9α-difluoro-11β-hydroxy-3-oxo-androst-4-ene-17β-carbothioic acid S-(2-oxo-tetrahydro-furan-3-yl) ester]	< 400 nM	–
CCC[C@@H]1O[C@@H]2C[C@H]3[C@@H]4C[C@H](F)C5=CC(=O)CC[C@]5(C)[C@@]4(F)[C@@H](O)C[C@]3(C)[C@]2(C(=O)NC2CCOC2=O)O1 (single isomer, unassigned) [Example 22, 16α,17α-(R-Butylidenedioxy)-6α,9α-difluoro-11β-hydroxy-3-oxo-androst-4-ene-17β-carboxylic acid N-(2-oxo-tetrahydro-furan-3-yl) amide]	< 400 nM	half-life [3]: < 3 h
CCC(=O)O[C@]1(C(=O)SC2CCOC2=O)[C@H](C)C[C@H]2[C@@H]3C[C@H](F)C4=CC(=O)C=C[C@]4(C)[C@@]3(F)[C@@H](O)C[C@@]21C (stereo partly drawn) [Example 1, 6α,9α-Difluoro-11β-hydroxy-16α-methyl-3-oxo-17α-propionyloxy-androsta-1,4-diene-17β-carbothioic acid S-(2-oxo-tetrahydro-furan-3-yl) ester]	< 400 nM	–
CCC(=O)O[C@]1(C(=O)SC2CCOC2=O)[C@H](C)C[C@H]2[C@@H]3C[C@H](F)C4=CC(=O)CC[C@]4(C)[C@@]3(F)[C@@H](O)C[C@@]21C (stereo partly drawn) [Example 4]	< 400 nM	–
CCCC(=O)O[C@]1(C(=O)SC2CCOC2=O)[C@H](C)C[C@H]2[C@@H]3C[C@H](F)C4=CC(=O)C=C[C@]4(C)[C@@]3(F)[C@@H](O)C[C@@]21C (stereo partly drawn) [Example 5, 17α-Butyryloxy-6α,9α-difluoro-11β-hydroxy-16α-methyl-3-oxo-androsta-1,4-diene-17β-carbothioic acid S-(2-oxo-tetrahydro-furan-3-yl) ester]	< 400 nM	–
CC(=O)O[C@]1(C(=O)SC2CCOC2=O)[C@H](C)C[C@H]2[C@@H]3C[C@H](F)C4=CC(=O)C=C[C@]4(C)[C@@]3(F)[C@@H](O)C[C@@]21C (stereo partly drawn) [Example 6, 17α-Acetyloxy-α,9α-difluoro-11β-hydroxy-16α-methyl-3-oxo-androsta-1,4-diene-17β-carbothioic acid S-(2-oxo-tetrahydro-furan-3-yl) ester]	< 400 nM	–
CCC(=O)O[C@]1(C(=O)SC2CCC(=O)O2)[C@H](C)C[C@H]2[C@@H]3C[C@H](F)C4=CC(=O)C=C[C@]4(C)[C@@]3(F)[C@@H](O)C[C@@]21C (stereo partly drawn) [Example 8, 6α,9α-Difluoro-11β-hydroxy-16α-methyl-3-oxo-17α-propionyloxy-androsta-1,4-diene-11β-carbothioic acid S-(5-oxo-tetrahydro-furan-2-yl) ester]	< 400 nM	–
CCC(=O)O[C@]1(C(=O)SC2COC(=O)C2)[C@H](C)C[C@H]2[C@@H]3C[C@H](F)C4=CC(=O)C=C[C@]4(C)[C@@]3(F)[C@@H](O)C[C@@]21C (stereo partly drawn) [Example 9, 6α,9α-Difluoro-11α-hydroxy-16α-methyl-3-oxo-17α-propionyloxy-androsta-1,4-diene-17β-carbothioic acid S-(2-oxo-tetrahydro-furan-4-yl) ester]	< 400 nM	–
CC1(C)O[C@@H]2C[C@H]3[C@@H]4C[C@H](F)C5=CC(=O)C=C[C@]5(C)[C@@]4(F)[C@@H](O)C[C@]3(C)[C@]2(C(=O)N[C@H]2CCOC2=O)O1 [Example 15, 6α,9α-Difluoro-11β-hydroxy-16α,17α-isopropylidenedioxy-3-oxo-androsta-1,4-diene-17β-carboxylic acid N-(2-oxo-tetrahydro-furan-3S-yl) amide]	< 400 nM	half-life [3]: < 3 h
CC1(C)O[C@@H]2C[C@H]3[C@@H]4C[C@H](F)C5=CC(=O)C=C[C@]5(C)[C@@]4(F)[C@@H](O)C[C@]3(C)[C@]2(C(=O)NC2CCOC2=O)O1 (stereo partly drawn) [Example 16, 6α,9α-Difluoro-11β-hydroxy-16α,17α-isopropylidenedioxy-3-oxo-androsta-1,4-diene-17β-carboxylic acid N-(2-oxo-tetrahydro-furan-3-yl) amide]	< 400 nM	half-life [3]: < 3 h
CC1(C)O[C@@H]2C[C@H]3[C@@H]4C[C@H](F)C5=CC(=O)C=C[C@]5(C)[C@@]4(F)[C@@H](O)C[C@]3(C)[C@]2(C(=O)N[C@@H]2COC(=O)C2)O1 [Example 23, 6α,9α-Difluoro-11β-hydroxy-16α,17α-isopropylidenedioxy-3-oxo-androsta-1,4-diene-17β-carboxylic acid N-(2-oxo-tetrahydro-furan-4S-yl) amide]	< 400 nM	half-life [3]: < 3 h
CC1(C)O[C@@H]2C[C@H]3[C@@H]4C[C@H](F)C5=CC(=O)C=C[C@]5(C)[C@@]4(F)[C@@H](O)C[C@]3(C)[C@]2(C(=O)N[C@H]2COC(=O)C2)O1 [Example 24, 6α,9α-Difluoro-11β-hydroxy-16α,17α-isopropylidenedioxy-3-oxo-androsta-1,4-diene-17β-carboxylic acid N-(2-oxo-tetrahydro-furan-4R-yl) amide]	< 400 nM	–
